The nature of this data set: in vivo. The settings on record: mouse, ip. As for the experimental part:
To determine this toxicity, C.F.L.P. strain albino mice of both sexes, weighing between 19 and 25 grams, have been used as experimental animals. After an 18 hour fast period with water "ad libitum" the derivatives which are the subjects of the present invention are administered intraperitoneally in 5% suspension in gum arabic. The volume of suspension administered has in all cases been 0.4 ml/20 grams (20 ml/kg), changing the concentration of the suspension according to the dose administered.
One hour after the administration of the derivatives, the animals are supplied with Panlab standard rat-mouse feed. The period of observation of mortality has been 7 days.

Usually LD50 stands for the dose at which mortality reaches 50%. Read a low LD50 as a more toxic substance. On to `CCn1cc(C(=O)O)c(=O)c2ccc(C)nc21` [Nalidixic acid, reference compound], for which the LD50 at 168 h stood at 600 mg/kg.
